Experimental data: patent US8088819B2, “Derivatives of substituted 3-phenyl-1-(phenylthienyl)propan-1-ones and of 3-phenyl-1-(phenylfuranyl) propan-1-ones, preparation and use” (priority 2006, dated 2012)

Legend:
[1] = system: target genes of the PPARs; experiment: Expression of PPARδ target genes in skeletal muscle of the C57Bl6 mouse (compounds 4 and 7), quantitative RT-PCR; format: in vivo; details: C57Bl6 mice; 50 mpk; 14 days
Source text: The PPARδ agonistic properties of the molecules according to the invention previously measured in vitro should be reflected at the level of the skeletal muscle in overexpression of the target genes directly under the control of the PPARδ receptor: the genes that were investigated in this experiment are the genes coding for PDK4 (enzyme of carbohydrate metabolism), CPT1b (enzyme of lipid metabolism), UCP2 and UCP3 (mitochondrial transporters involved in thermoregulation).
Female C57Bl6 mice were kept under a cycle of light and darkness of 12/12 hours at a constant temperature of 20±3° C. After acclimation for one week, the mice were weighed and put into groups of 6 animals selected so that the distribution of their body weight, of their plasma lipid levels and of total cholesterol determined for the first time before the experiment, is uniform. The test compounds were suspended in carboxymethylcellulose (Sigma C4888) and administered by intragastric force feeding, at a rate of once per day for 14 days at the chosen dose. The animals had free access to water and to food (standard diet). At the end of the experiment, the animals were anesthetized after fasting for 4 hours, a blood sample was taken using anticoagulant (EDTA), then the mice were weighed and euthanased. The plasma was separated by centrifugation at 3000 rev/min for 20 minutes, and the samples were stored at +4° C.
Samples of skeletal muscle tissue were taken and frozen immediately in liquid nitrogen and then stored at −80° C. for later analyses.
The total RNA was extracted from fragments of gastrocnemius skeletal muscle using the RNeasy® Fibrous Tissue kit (Qiagen) following the manufacturer's instructions.
1 μg of total RNA (quantified based on the spectrophotometer reading) was then reverse-transcribed to complementary DNA by reaction for 1 hour at 37° C. in a total volume of 30 μl containing buffer 1× (Invitrogen), 1.5 mM of DTT, 0.18 mM of dNTPs (Promega), 200 ng of pdN6 (Amersham), 30 U of RNase inhibitor (Promega) and 1 μl of MMLV-RT (Invitrogen).
The quantitative PCR experiments were carried out using the MyiQ Single-Color Real-Time PCR Detection System (Biorad, Marnes-la-Coquette, France) and were performed using the iQ SYBR Green Supermix kit following the supplier's recommendations, in 96-well plates, on 5 μl of diluted reverse transcription reaction mixture with a hybridization temperature of 60° C. Primer pairs specific to the genes under investigation were used:
The amount of fluorescence emitted is directly proportional to the amount of complementary DNA present at the start of the reaction and amplified during PCR. For each target investigated, a range is produced by successive dilutions of a pool constituted of a few microliters of various reverse transcription reaction mixtures. The relative expression levels of each target are thus determined using the efficacy curves obtained with the points in the range.
The levels of expression of the genes of interest were then normalized relative to the level of expression of the reference gene 18S (whose specific primers are: […]
The induction factor, i.e. the ratio of the relative signal (induced by the compound according to the invention) to the mean of the relative values of the control group, was then calculated for each sample. The higher this factor, the greater the gene expression activating character of the compound. The final result is represented as the mean of the induction values in each experimental group.

[2] = system: MCP1 secretion in human monocytes (THP1); experiment: MCP1 secretion by human monocytes stimulated with PMA (ELISA); format: cell-based; details: at 1 μm, 24 h
Description: The antiinflammatory effects of the compounds according to the invention were evaluated by measuring the secretion and expression of macrophages chemoattractant protein (MCP1) and of matrix metalloproteinase 9 (MMP9) by monocytes treated with the compounds according to the invention for 24 hours and stimulated with PMA (phorbol 12-myristate 13-acetate, which causes an inflammatory response of the cells). The more the amount of MCP1 secreted is reduced, the greater the inhibitory action of the compounds according to the invention on the inflammatory reaction. […]
The treatment medium is recovered and the concentration of MCP1 is measured using the ELISA kit “Human MCP1 Elisa set” (BD OptEIA; 555179) following the manufacturer's recommendations.
A human antiMCP1 monoclonal antibody is fixed on a plate, then the supernatants, containing the MCP1 secreted by the cells, are distributed. […] A third antibody, conjugated and coupled to a peroxidase enzyme, makes it possible, in the presence of substrate, to initiate an enzymatic reaction, the result of which is a coloration that is proportional to the amount of MCP1 fixed, and can be measured by spectrophotometry. […]
The induction factor, i.e. the ratio of the signal induced by the compound according to the invention to the signal of the control group, was then calculated. […]

Row | Compound | expression of the gene coding for CPT1b in skeletal muscle [1] | expression of the gene coding for PDK4 in skeletal muscle [1] | expression of the gene coding for UCP2 in skeletal muscle [1] | expression of the gene coding for UCP3 in skeletal muscle [1] | secretion of MCP1 in human monocytes [2]
1 | CC(C)(Oc1ccc(CCC(O)c2ccc(-c3ccc(C(F)(F)F)cc3)s2)c(Cl)c1Cl)C(=O)O (stereo not shown) [Compound 4, 2-(2,3-dichloro-4-(3-hydroxy-3-(5-(4-(trifluoromethyl)phenyl)thien-2-yl)propyl)phenoxy)-2-methylpropanoic acid] | significant increase | significant increase | significant increase | significant increase | 
2 | CC(C)(Oc1ccc(CCC(OCc2ccccc2)c2ccc(-c3ccc(C(F)(F)F)cc3)s2)c(Cl)c1Cl)C(=O)O (stereo not shown) [Compound 7, 2-(4-(3-(benzyloxy)-3-(5-(4-(trifluoromethyl)phenyl)thien-2-yl)propyl)-2,3-dichlorophenoxy)-2-methylpropanoic acid] | significant increase | significant increase | significant increase | significant increase | significant decrease
3 | CC(C)(Oc1ccc(CCC(=O)c2cc(-c3ccc(C(F)(F)F)cc3)cs2)c(Cl)c1Cl)C(=O)O [Compound 11, 2-(2,3-dichloro-4-(3-oxo-3-(4-(4-(trifluoromethyl)phenyl)thien-2-yl)propyl)phenoxy)-2-methylpropanoic acid] |  |  |  |  | significant decrease
